Test results as given in article PMC10223737, “Validation of Freshly Isolated Rat Renal Cells as a Tool for Preclinical Assessment of Radiolabeled Receptor-Specific Peptide Uptake in the Kidney” (Pharmaceuticals, 2023).
Where a SMILES comes first, the peptide text is derived from it. [ ]: non-standard residue; d: D form. The star is where a group is joined. DOTA = O=C(O)CN1CCN(CC(=O)O)CCN(CC(=O)*)CCN(CC(=O)O)CC1

Tests used:
[1] = tested on: isolated rat renal cells; experiment: Active versus passive cellular accumulation in isolated rat renal cells (37 °C vs low temperature); assay type: in vitro ADME; details: n = 4, Figure 6; for contribution of active accumulation to cell uptake: 37 °C (= 100%) vs low incubation temperature (2–4 °C)
Text: An experiment was arranged to test this cellular model's potential for investigating active membrane transport processes in radiopeptide renal accumulation. […] Using the same procedure as for the radiopeptides, we tested and expressed the uptake of the other studied compounds.

[2] = tested on: LLC-PK1 cells; experiment: Cellular uptake in LLC-PK1 cells; assay type: in vitro ADME, porcine; details: incubation time 30 min; Figure 5
Text: The cellular accumulation of two somatostatin receptor-specific analogs ([^111In]In -DOTA-TATE and [^111In]In -DOTA-NOC) was compared in two renal cellular models, OK cells and LLC-PK1 cells.

[3] = tested on: rat kidneys; details: cited from earlier work; for radiopeptide uptake in rat kidneys in vivo: radioactivity in the kidneys 60 min after i.v. administration, rats
Text: The data on radiopeptide cellular uptake were compared with already available data on radiopeptide renal retention in rats in vivo, which were previously published by our team.

[4] = tested on: isolated rat renal cells; experiment: Radiopeptide uptake in freshly isolated rat renal cells; details: 1 mL suspension 2.10^6/mL + 10 µL radiopeptide (1 µg/mL), 30 min, 37 °C, cells washed four times, gamma-counter
Description: Fresh rat renal cells were isolated from the kidney using the two-phase collagenase perfusion method described by Jones et al. [11]. Male Wistar rats weighing 270–330 g were used for the experiments. The rats were housed under standard conditions (tap water, standard diet, and a 12/12 h light–dark cycle). Animals were fasted for 18–24 h prior to experiments.
As a first step, rats were anesthetized (sodium pentobarbital, 50 mg/kg), the abdomen was opened, and the right renal artery and adjacent parts of the aorta were freed. Then, the right renal artery was cannulated via the aorta. Single-pass perfusion was conducted using oxygenated calcium-free Hanks’ buffer (pH 7.4) containing EGTA (0.5 mM) and Hepes (25 mM). The second perfusion phase was performed in a recirculation system with modified Hanks’ buffer containing CaCl2 (4 mM) and collagenase (0.10 % w/v) for 18–22 min. The kidneys were removed and dispersed in cold Krebs–Henseleit buffer with Hepes (25 mM) and bovine serum albumin (2% w/v). The resulting suspension was filtered and washed with Krebs–Henseleit buffer. Following centrifugation (3 min; 80 g; 4 °C), we used the trypan blue exclusion method to determine the number of cells in the suspension. […] As a result, the cell viability at the end of the 30 min incubation interval was >85%.
Standard incubations were conducted for 30 min at 37 °C using 1 mL of cell suspension containing 2.10^6/mL renal cells. The radiopeptide uptake was determined by mixing 1 mL of cell suspension and 10 µL of the radiopeptide (1 µg/mL). After incubation, the cells were washed four times and separated. The radioactivity of the cell fractions was measured as mentioned below.

contribution of active accumulation to cell uptake [1] | Compound | cellular accumulation in LLC-PK1 cells compared with OK cells [2] | radiopeptide uptake in rat kidneys in vivo [3] | radiopeptide uptake in isolated rat cells (In Vitro) [4] [%D/10^6 cells] | other results
highest contribution | mercaptoacetylglycylglycylglycine [[^99mTc]Tc-MAG3] |  |  |  | accumulation at the low incubation temperature ([1]; 2–4 °C, active processes blocked): negligible accumulation
lowest contribution | O=C(O)C(S)C(S)C(=O)O (stereo not drawn) [[^99mTc]Tc-DMSA, dimercaptosuccinate, metal not drawn] |  |  |  | 

More lines, now with the values behind:

Compound | contribution of active accumulation to cell uptake [1] | cellular accumulation in LLC-PK1 cells compared with OK cells [2] | radiopeptide uptake in rat kidneys in vivo [3] | radiopeptide uptake in isolated rat cells (In Vitro) [4] [%D/10^6 cells] | other results
[DOTA^0, D-Phe^1, 1-Nal^3]-octreotide (disulfide) [[^111In]In-DOTA-NOC] |  | significantly higher | 2.84 ± 0.28 [19] %D/g | 0.75 ± 0.09 | 
CSCC[C@H](NC(=O)[C@H](Cc1c[nH]c2ccccc12)NC(=O)CNC(=O)[C@H](Cc1ccc(O)cc1)NC(=O)[C@H](C)NC(=O)[C@@H](CCC(=O)O)NC(=O)CN1CCN(CC(=O)O)CCN(CC(=O)O)CCN(CC(=O)O)CC1)C(=O)N[C@@H](CC(=O)O)C(=O)N[C@@H](Cc1ccccc1)C(N)=O [[^111In]In-DOTA-MG11, metal not drawn] ({DOTA}-[dE]AYGWMDF-NH2) |  |  | 0.84 ± 0.35 [21] %D/g | 0.16 ± 0.15 | 
DTPA-DGlu-Glu-Glu-Glu-Glu-Glu-Ala-Tyr-Gly-Trp-Met-Asp-Phe-NH2 [[^111In]In-DTPA-MG0] |  |  |  |  | retention in the rat kidney in vivo (in words) ([3]; rat, in vivo, iv): relatively high
[DOTA^0, Tyr^3, Thr^8]-octreotide [[^111In]In-DOTA-TATE] |  | relatively similar in both cell lines | 3.08 ± 0.42 [19] %D/g | 0.36 ± 0.10 | 
